In US6706470B2, “Gene switches” (priority 1999, dated 2004):
Starred links: 1 amine or outer side, 2 acyl side, 3 side chain; linkers in the order of their positions; H or OH if unused. Positions of bridges follow the written chain, without caps; N, C: chain ends. Non-standard residues stand in square brackets, D forms with d. Residues, ends and D or L forms follow the SMILES beside them. Chains are numbered I, II in the order given. Actinocin(9to1) = Cc1c2oc3c(C)ccc(C(=O)[*:1])c3nc-2c(C(=O)[*:2])c(N)c1=O; NMeV = CN[C@H](C(=O)O)C(C)C; Sar = CNCC(=O)O

Experiments:
DNA sequence AAAAAGGCG = assay: Phage ELISA: zinc finger phage binding to DNA with and without distamycin A; conditions: DNA concentration constant at 2 nM
[1] = test system: DNA target AAAAAGCGGAAAAA; assay: Dissociation of zinc finger phage from its DNA target by distamycin A; type: binding
Procedure: (§1) This example describes phage that bound DNA targets with higher affinity in the absence of ligand. These phage were isolated using either: (a) the same method as in example 1.1, or (b) by selection in the absence of small molecule and phage elution from DNA using a small molecule.
(§2) Phage selection is over 4 rounds. Binding reactions contain 10 pmol biotinylated DNA site immobilised on 50 mg streptavidin coated beads (Dynal) and a 1 ml solution of zinc finger phage library (as described in 1.1) Reactions were incubated for 1 h on a rolling platform. After this time, beads were washed 20 times as described in 1.1 and finally phage were eluted from the beads over 5 minutes using a solution containg ligand (10 μM Distamycin A, or 1 μM Actinomycin D in PBS/Zn).
Some phage isolated by either of the above methods (a or b) bound DNA in the absence of ligand but could be displaced by concentrations of distamycin A at 10 μM and actinomycin D at 1 μM. The distamycin sensitive clone was selected using the DNA target AAAAAGCGGAAAAA (SEQ ID NO:48) and its helices were sequenced as: […]

[2] = test system: CAT reporter gene downstream of the sequence AAAAAAGGCG; assay: Transient transfection CAT reporter assay; type: cell-based; conditions: in the presence of Distamycin A; zinc finger-HSV VP16 fusion cotransfected
DNA target AGCTTGGCG = assay: Dissociation of zinc finger phage from its DNA target by actinomycin D; type: binding
Procedure: as §1, §2
The actinomycin D sensitive clone was selected with the DNA target AGCTTGGCG and its helices were sequenced as: […]

ligand concentration at which phage retention is close to background level (DNA sequence AAAAAGGCG) | effect of ligand on phage binding to specific DNA sequence ([1]; FIG. 6) | Structure (SMILES) | ligand concentration that displaces DNA-bound phage ([1]; distamycin sensitive clone) | CAT gene expression [2] | effect of ligand on phage binding to specific DNA sequence (DNA target AGCTTGGCG; FIG. 6) | ligand concentration that displaces DNA-bound phage (DNA target AGCTTGGCG; actinomycin D sensitive clone)
≤ 10^−9 M | dissociated from the DNA | Cn1cc(NC(=O)c2cc(NC(=O)c3cc(NC=O)cn3C)cn2C)cc1C(=O)NCCC(=N)N [distamycin A] | 10 µM | CAT expression is observed | – | –
– | – | Cc1c2oc3c(C)ccc(C(=O)N[C@@H]4C(=O)N[C@H](C(C)C)C(=O)N5CCC[C@H]5C(=O)N(C)CC(=O)N(C)[C@@H](C(C)C)C(=O)O[C@@H]4C)c3nc-2c(C(=O)N[C@@H]2C(=O)N[C@H](C(C)C)C(=O)N3CCC[C@H]3C(=O)N(C)CC(=O)N(C)[C@@H](C(C)C)C(=O)O[C@@H]2C)c(N)c1=O [actinomycin D] (I: T[dV]P[Sar][NMeV] / II: T[dV]P[Sar][NMeV]; ester I:1-I:C, II:1-II:C; linker I:N-II:N via Actinocin(9to1)) | – | – | dissociated from the DNA | 1 µM
